# Test results: ChEMBL document CHEMBL3774317, “Design and synthesis of novel tamoxifen analogues that avoid CYP2D6 metabolism” (Eur J Med Chem, 2016)
# Tests used:
# Type in all cases: functional
# [1] = Cytotoxicity against human SKOV3 cells assessed as cell growth at 10^-7 M after 48 hrs by SRB assay; conditions: SK-OV-3, 48 h, read-out: Activity
# [2] = Cytotoxicity against human DU145 cells assessed as cell growth at 10^-7 M after 48 hrs by SRB assay; conditions: DU-145, 48 h, read-out: Activity
# MDA-MB-231 [3] = test: Cytotoxicity against human MDA-MB-231 cells assessed as cell growth at 10^-7 M after 48 hrs by SRB assay; conditions: MDA-MB-231, 48 h, read-out: Activity
# [4] = Cytotoxicity against human BT549 cells assessed as cell growth at 10^-7 M after 48 hrs by SRB assay; conditions: BT-549, 48 h, read-out: Activity
# MDA-MB-468 [5] = test: Cytotoxicity against human MDA-MB-468 cells assessed as cell growth at 10^-7 M after 48 hrs by SRB assay; conditions: MDA-MB-468, 48 h, read-out: Activity
# [6] = Cytotoxicity against human MOLT4 cells assessed as cell growth at 10^-8 M after 48 hrs by SRB assay; conditions: MOLT-4, 48 h, read-out: Activity
# [7] = Cytotoxicity against human RPMI8226 cells assessed as cell growth at 10^-8 M after 48 hrs by SRB assay; conditions: RPMI-8226, 48 h, read-out: Activity
# SK-MEL-5 = test: Cytotoxicity against human SK-MEL-5 cells assessed as cell growth at 10^-6 M after 48 hrs by SRB assay; conditions: SK-MEL-5, 48 h, read-out: Activity
# A498 = test: Cytotoxicity against human A498 cells assessed as cell growth at 10^-6 M after 48 hrs by SRB assay; conditions: A498, 48 h, read-out: Activity
# A549 = test: Cytotoxicity against human A549 cells assessed as cell growth at 10^-5 M after 48 hrs by SRB assay; conditions: A549, 48 h, read-out: Activity
# [8] = Cytotoxicity against human LOXIMVI cells assessed as cell growth at 10^-5 M after 48 hrs by SRB assay; conditions: LOX IMVI, read-out: Activity
# [9] = Cytotoxicity against human HOP92 cells assessed as cell growth at 10^-8 M after 48 hrs by SRB assay; conditions: HOP-92, 48 h, read-out: Activity
# [10] = Cytotoxicity against human COLO205 cells assessed as cell growth at 10^-8 M after 48 hrs by SRB assay; conditions: COLO 205, 48 h, read-out: Activity
# [11] = Cytotoxicity against human SW620 cells assessed as cell growth at 10^-8 M after 48 hrs by SRB assay; conditions: SW-620, 48 h, read-out: Activity
# NCI-H522 = test: Cytotoxicity against human NCI-H522 cells assessed as cell growth at 10^-4 M after 48 hrs by SRB assay; conditions: NCI-H522, 48 h, read-out: Activity
# [12] = Cytotoxicity against human HCT15 cells assessed as cell growth at 10^-4 M after 48 hrs by SRB assay; conditions: HCT-15, 48 h, read-out: Activity
# [13] = Cytotoxicity against human SF268 cells assessed as cell growth at 10^-4 M after 48 hrs by SRB assay; conditions: SF-268, 48 h, read-out: Activity
# [14] = Cytotoxicity against human LOXIMVI cells assessed as cell growth at 10^-4 M after 48 hrs by SRB assay; conditions: LOX IMVI, read-out: Activity
# MDA-MB-435 [15] = test: Cytotoxicity against human MDA-MB-435 cells assessed as cell growth at 10^-4 M after 48 hrs by SRB assay; conditions: MDA-MB-435, 48 h, read-out: Activity
# [16] = Cytotoxicity against human UACC257 cells assessed as cell growth at 10^-4 M after 48 hrs by SRB assay; conditions: UACC-257, 48 h, read-out: Activity
# [17] = Cytotoxicity against human OVCAR3 cells assessed as cell growth at 10^-4 M after 48 hrs by SRB assay; conditions: OVCAR-3, 48 h, read-out: Activity
# [18] = Cytotoxicity against human SF268 cells assessed as cell growth at 50 nM after 48 hrs by SRB assay; conditions: SF-268, 48 h, read-out: Activity
# MDA-MB-435 [19] = test: Cytotoxicity against human MDA-MB-435 cells assessed as cell growth at 50 nM after 48 hrs by SRB assay; conditions: MDA-MB-435, 48 h, read-out: Activity
# SK-MEL-2 = test: Cytotoxicity against human SK-MEL-2 cells assessed as cell growth at 50 nM after 48 hrs by SRB assay; conditions: SK-MEL-2, 48 h, read-out: Activity
# MDA-MB-468 [20] = test: Cytotoxicity against human MDA-MB-468 cells assessed as cell growth at 50 nM after 48 hrs by SRB assay; conditions: MDA-MB-468, 48 h, read-out: Activity
# [21] = Cytotoxicity against human SNB19 cells assessed as cell growth at 50 uM after 48 hrs by SRB assay; conditions: SNB-19, 48 h, read-out: Activity
# MCF7 = test: Cytotoxicity against human MCF7 cells assessed as cell growth at 50 uM after 48 hrs by SRB assay; conditions: MCF7, 48 h, read-out: Activity
# MDA-MB-231 [22] = test: Cytotoxicity against human MDA-MB-231 cells assessed as cell growth at 50 uM after 48 hrs by SRB assay; conditions: MDA-MB-231, 48 h, read-out: Activity
# EKVX = test: Cytotoxicity against human EKVX cells assessed as cell growth at 0.5 uM after 48 hrs by SRB assay; conditions: read-out: Activity
# [23] = Cytotoxicity against human HCC2998 cells assessed as cell growth at 0.5 uM after 48 hrs by SRB assay; conditions: HCC 2998, 48 h, read-out: Activity
# MDA-MB-435 [24] = test: Cytotoxicity against human MDA-MB-435 cells assessed as cell growth at 0.5 uM after 48 hrs by SRB assay; conditions: MDA-MB-435, 48 h, read-out: Activity
# [25] = Cytotoxicity against human OVCAR5 cells assessed as cell growth at 0.5 uM after 48 hrs by SRB assay; conditions: OVCAR-5, 48 h, read-out: Activity
# 786-0 = test: Cytotoxicity against human 786-0 cells assessed as cell growth at 0.5 uM after 48 hrs by SRB assay; conditions: 786-0, 48 h, read-out: Activity
# MDA-MB-468 [26] = test: Cytotoxicity against human MDA-MB-468 cells assessed as cell growth at 0.5 uM after 48 hrs by SRB assay; conditions: MDA-MB-468, 48 h, read-out: Activity
# SR = test: Cytotoxicity against human SR cells assessed as cell growth at 5 uM after 48 hrs by SRB assay; conditions: read-out: Activity
# [27] = Cytotoxicity against human HOP62 cells assessed as cell growth at 5 uM after 48 hrs by SRB assay; conditions: HOP-62, 48 h, read-out: Activity
# [28] = Cytotoxicity against human NCI-ADR-RES cells assessed as cell growth at 5 nM after 48 hrs by SRB assay; conditions: read-out: Activity
# [29] = Cytotoxicity against human Caki1 cells assessed as cell growth at 5 nM after 48 hrs by SRB assay; conditions: CAKI-1, 48 h, read-out: Activity
# [30] = Cytotoxicity against human SNB75 cells assessed as cell growth at 5 uM after 48 hrs by SRB assay; conditions: SNB-75, 48 h, read-out: Activity
# [31] = Cytotoxicity against human RPMI8226 cells assessed as cell growth at 50 uM after 48 hrs by SRB assay; conditions: RPMI-8226, 48 h, read-out: Activity
structure (smiles),measurement,setting,value
C/C(=C(/c1ccc(O)cc1)c1ccc(OCCN2CCCC2)cc1)c1ccccc1,growth at 0.1 µM,[1],93%
same,growth at 0.1 µM,[2],96%
same,growth at 0.1 µM,MDA-MB-231 [3],116%
same,growth at 0.1 µM,[4],100%
same,growth at 0.1 µM,MDA-MB-468 [5],97%
same,growth at 0.01 µM,[6],102%
same,growth at 0.01 µM,[7],103%
same,growth at 1 µM,SK-MEL-5,96%
same,growth at 1 µM,A498,66%
same,growth at 10 µM,A549,4%
same,growth at 10 µM,[8],-86%
same,growth at 0.01 µM,[9],98%
same,growth at 0.01 µM,[10],93%
same,growth at 0.01 µM,[11],102%
same,growth at 100 µM,NCI-H522,-82%
same,growth at 100 µM,[12],-100%
same,growth at 100 µM,[13],-80%
same,growth at 100 µM,[14],-93%
same,growth at 100 µM,MDA-MB-435 [15],-100%
same,growth at 100 µM,[16],-99%
same,growth at 100 µM,[17],-100%
CCCCCCCCCC(=O)Oc1ccc(/C(=C(/C)c2ccccc2)c2ccc(OCCN3CCCC3)cc2)cc1,growth at 0.05 µM,[18],97%
same,growth at 0.05 µM,MDA-MB-435 [19],92%
same,growth at 0.05 µM,SK-MEL-2,101%
same,growth at 0.05 µM,MDA-MB-468 [20],100%
same,growth at 50 µM,[21],-77%
same,growth at 50 µM,MCF7,-79%
same,growth at 50 µM,MDA-MB-231 [22],-67%
same,growth at 0.5 µM,EKVX,78%
same,growth at 0.5 µM,[23],88%
same,growth at 0.5 µM,MDA-MB-435 [24],67%
same,growth at 0.5 µM,[25],77%
same,growth at 0.5 µM,786-0,79%
same,growth at 0.5 µM,MDA-MB-468 [26],69%
same,growth at 5 µM,SR,90%
same,growth at 5 µM,[27],91%
same,growth at 0.005 µM,[28],101%
same,growth at 0.005 µM,[29],88%
same,growth at 5 µM,[30],69%
same,growth at 50 µM,[31],-52%
